Experiments:
burn wounds = assay: Burn wounds, 15% body surface, treatment started 50 days after burning (rats); type: in vivo, Sprague-Dawley rats; conditions: 15% burn, open wounds after 50 days placebo; 1% BAC-3 ointment, tapering schedule
Excerpt: The wound surface areas tested were of two different sizes. One size to 7% of the body surface, which enables one to compare the rate of wound healing with different percentage of BAC-3 and the other size to 15% of the body surface, which is a sufficient size so that healing could not occur by contraction alone. On the other hand, the total wound surface area should not cause major systematic problems. The latter can be concluded from undisturbed weight gain of the animals. The standard animal burn was performed by techniques and device described by Walker. The burning devices were prepared using a model device ordered from U.S. Army Surgical Research Unit, Experimental Surgery, Army Medical Center, Fort Sam Houston, Tex. 78234. The devices had apertures which enabled exposure of 7% and 15% of the total rat skin surface. The surface of the skin was measured for every animal using Mech's formula: A=kW^2/3; A=surface area in cm^2; W=body weight in grams; k=10.
Method of burning. Each animal was anesthetized with sodium pentobarbital administered i/p (5 mg/25 g). (Producer: Veterinary Laboratory Inc. Lenexa, Kans.). The hair over the dorsum was clipped with animal clippers. The animal was placed supine in the burning device and the extremities were tied; the malleable retractor was placed over the animal and secured snugly with plastic straps. […]

[1] = tested on: neonatal human fibroblast cells; assay: Caspase detection in neonatal human fibroblast cells in FM, fluorescence spectroscopy; type: cell-based; conditions: fibroblasts in FM
Excerpt: The procedure for caspase detection in neonatal human fibroblast cells in fibroblast growth medium FM* treated with BAC-3 using fluorescence spectroscopy.
Note: CaspaTag Fluorescein Caspase Activity Kit (Intergen Company) was used to detect active caspase enzymes with fluorescent spectroscopy. All solutions, except cell medium and PBS, were included with the kit.
12 vials of neonatal human fibroblasts, NHF97-001 passage #3 (prepared as described in section 2.1.a), were retrieved from a liquid N2 chamber. Closed vials were quickly defrosted in a small amount of 37° C., 75% ethanol. […]
Di-rhamnolipid BAC-3 was weighed on the precision balance (Mettler AC100) and dissolved in FM medium to make an aqueous 1 mg/ml di-rhamnolipid BAC-3 stock solution. […] The remaining 9 plates were used as controls: 3 plates for positive apoptosis control (apoptosis induction by UVB+antibody), 3 plates for BAC-3 untreated control and 3 plates for fluorescence control (FAM-VAD-FMK unlabelled cells). […]
On day 6, treatment with BAC-3 was completed and cells were trypsinized and collected into 50 ml centrifuge tubes. Cells were counted using a hemacytometer and a trypan blue exclusion test and densities were adjusted to 1.0×10^6 cells per ml of FM medium. […]

venous ulcer = assay: Open wound healing in a patient with incurable venous ulcer; type: in vivo, human; conditions: 1% BAC-3 ointment twice daily during 41 days
Description: The BAC-3 rhamnolipid was tested in the case of open wound healing, in a patient suffering around ten years from incurable venous ulcer. On the left leg, the patient had very thick layers of collagen with fibrotic lesions. […] Moreover, after treatment was finished, not only the collagen, but also the fibrotic lesions had disappeared as well. One year after the treatment, the treated skin lesions on the left leg appear normal, and all skin collagen and fibrotic layers had disappeared.

CCCCCCCC(CC(=O)O)OC(=O)CC(CCCCCCC)OC1OC(C)C(O)C(O)C1OC1OC(C)C(O)C(O)C1O [BAC-3, (α-L-rhamnopyranosyl-(1,2)-α-L-rhamnopyranosyl)-3-hyroxydecanoyl-3-hydroxydecanoic acid]
time to whole epithelization in all animals (burn wounds): 30 days | optimal concentration for inducing apoptosis (caspase activity peak) ([1]; 6 days, tested 100, 50, 10 and 1 μg/ml): 50 µg/mL | mechanism of cell death at higher concentrations ([1]; higher concentrations of BAC-3 (detergent effect)): cell necrosis | collagen and fibrotic lesions after treatment (venous ulcer; after treatment and one year later): disappeared | patient's condition (venous ulcer; one patient, venous ulcer, left leg): significantly improved

— patent US7129218B2, “Use of rhamnolipids in wound healing, treatment and prevention of gum disease and periodontal regeneration” (Paradigm Biomedical, Inc., priority 1999, dated 2006)
